# Results taken from US11999806B2, “Broad-spectrum polypeptide against enterovirus and application thereof” (WUHAN INSTITUTE OF VIROLOGY, CHINESE ACADEMY OF SCIENCES, priority 2018, dated 2024).
# Several values for one entry are separate records, joined by “and”; a condition that tells them apart may be missing. Equal entries are not always repeated. Non-standard residues stand in square brackets, D forms with d. Residues, ends and D or L forms follow the SMILES beside them. No end group written: not given here.
# What was measured:
# EV71 = assay: Anti-EV71 efficiency in 293T cells, viral RNA by qRT-PCR; format: cell-based, enterovirus 71; details: for antiviral effect of P2 variants as EV71 inhibitor, in words: FIG. 5, 293T cells, compared with P2
# Experimental: • (1) 293T cells, Vero cells and Huh7.5 cells were plated in 24-well plates respectively. • (2) After the cells reached 70%-80% confluence, the MEM medium containing 10% serum was replaced with a MEM medium containing 2% serum (0.5 ml/well), and 5 μl of 10^6 PFU/mL EV71 virus per well was added. • (3) After 1 h, polypeptide P2 was added to different cells at a final concentration of 0.01 μM, 0.1 μM, 1 μM, 10 μM, and 50 μM, respectively. • (4) Samples were collected 24 hours after virus infection, and RNA was extracted with a total RNA extraction kit as follows. • (5) The supernatant in each well was discarded, then 350 μl of TRK Lysis Buffer was added to the well and the plate was shaken on the shaker for 5 minutes. • (6) 350 μl of 70% ethanol (DEPC-treated) was added to the well and the plate was shaken on the shaker for 5 minutes. • (7) The mixture in the well was transferred to a RNA extraction column and centrifuged at 12,000 g for 1 min. • (8) The solution collected in the recovery tube was added back to the column and centrifuged at 12,000 g for 1 min. • (9) RNA washing buffer 1 was added to the column and centrifuged at 12,000 g for 30 s. • (10) RNA washing buffer 2 was added to the column and centrifuged at 12,000 g for 1 min. • (11) Step (10) was repeated once. • (12) The empty column was centrifuged at 12,000 g for 2 min to completely remove residual RNA washing buffer. • (13) 50 μl DEPC-treated H2O was added to the column and centrifuge at 12,000 g for 2 min. • (14) 2 μl RNA sample was used according to one step qRT-PCR kit for fluorescence quantification experiment. […]
# [1] = Cytotoxicity by CCK-8 in Vero cells; format: cell-based; details: 24 h, read-out: Cell viability (%)
# Experimental: (§1) The experiment was performed as follows. • (1) Vero cells were plated in a 96-well plate at 100 μl per well. • (2) After the cells reached 70%-80% confluence, the MEM medium containing 10% serum was replaced with a MEM medium containing 2% serum. Then, polypeptide BP8, BP10 or BP15 was added to generate gradient concentrations of […], […], 12.5 μM, 25 μM, 50 μM, 100 μM, and 200 μM (final concentrations), respectively. • (3) The samples were collected 24 hours after the addition of the polypeptide, and 10 μl of live cell detection reagent CCK-8 was added to each well and mixed well. • (4) The plate was placed at 37° C. for 4 h. • (5) The absorbance value at OD450 was measured with a microplate reader.
# Vero cells = assay: Cytotoxicity by CCK-8 in Vero cells; format: cell-based; details: for Cell viability (%): 24 h
# Experimental: as §1
# [2] = 20 mg/kg i.p. once daily for 3 days
# From the text: • (1) A total of 12 10-day-old suckling mice were randomly divided into two groups, 6 in each group.
molecule,measurement,setting,value
RRRRRRRREEVRQYCRDQ [P2],IC50,"EV71; 293T cells, read-out: IC50 against EV71 by qRT-PCR",9.68 µM
CC[C@@H](C)[C@@H](NC(=O)[C@H]1CCCN1C(C)=O)C(=O)N[C@@H](C(=O)N[C@H](Cc1c[nH]c2ccccc12)C(=O)NCC(=O)N[C@H](CCC(N)=O)C(=O)N[C@H](CCC(=O)O)C(=O)N[C@H](CCCNC(=N)N)C(=O)N[C@H](CS)C(=O)N[C@H](Cc1ccc(O)cc1)C(=O)N[C@H](CCC(N)=O)C(=O)N[C@H](CCCNC(=N)N)C(=O)N[C@@H](C(=O)N[C@H](CCC(=O)O)C(=O)N[C@H](CCC(=O)O)C(=O)N1CCC[C@@H]1C(=O)N1CCC[C@@H]1C(=O)N[C@H](CCCNC(=N)N)C(=O)N[C@H](CCCNC(=N)N)C(=O)N[C@H](CCCNC(=N)N)C(=O)N[C@H](CCC(N)=O)C(=O)N[C@H](CCCNC(=N)N)C(=O)N[C@H](CCCNC(=N)N)C(=O)N[C@H](CCCCN)C(=O)N[C@H](CCCCN)C(=O)N[C@H](CCCNC(=N)N)C(=O)NCC(=O)N[C@H](Cc1ccc(O)cc1)C(N)=O)C(C)C)[C@H](C)CC [3A-EP-DRI],"antiviral effect of P2 variants as EV71 inhibitor, in words",EV71,improved antiviral effect
YGRKKRRQRRRGSGEAVREYCK [BP8],"viability at 24 h, 3.0625 µM",[1]; 3.0625 μM,103%
same,"viability at 24 h, 6.125 µM",[1]; 6.125 μM,101%
same,"viability at 24 h, 12.5 µM",[1]; 12.5 μM,95.5%
same,"viability at 24 h, 25 µM",[1]; 25 μM,96.6%
same,"viability at 24 h, 50 µM",[1]; 50 μM,94.4%
same,"viability at 24 h, 100 µM",[1]; 100 μM,99.7%
same,"viability at 24 h, 200 µM",[1]; 200 μM,87.2%
same,Cell viability (%),Vero cells; 3.0625 μM,105.2007% and 108.7417%
same,Cell viability (%),Vero cells; 6.125 μM,111.3814% and 119.3004%
same,Cell viability (%),Vero cells; 12.5 μM,106.8102% and 109.1924%
same,Cell viability (%),Vero cells; 25 μM,99.47% and 113.6348%
same,Cell viability (%),Vero cells; 50 μM,108.2266% and 112.4759%
same,Cell viability (%),Vero cells; 100 μM,96.7% and 97.35%
same,Cell viability (%),Vero cells; 200 μM,92.0023% and 92.52%
same,"cytotoxicity, result in words","Vero cells; CCK-8, 24 h",not toxic to cells within 200 μM
CCCCCCCCCCCCCCCC(=O)NCCCC[C@H](NC(=O)CCOCCOCCOCCOCCNC(=O)[C@H](CCCCN)NC(=O)[C@H](C)NC(=O)[C@@H]1CCCN1C(=O)[C@@H](NC(=O)[C@@H](NC(=O)[C@H](Cc1c[nH]c2ccccc12)NC(=O)CNC(=O)[C@H](CCC(N)=O)NC(=O)[C@H](CCC(=O)O)NC(=O)[C@H](CCCNC(=N)N)NC(=O)[C@H](CS)NC(=O)[C@H](Cc1ccc(O)cc1)NC(=O)[C@H](CCC(N)=O)NC(=O)[C@H](CCCNC(=N)N)NC(=O)[C@@H](NC(=O)[C@H](CCC(=O)O)NC(=O)[C@@H](N)CCC(=O)O)C(C)C)[C@@H](C)CC)[C@@H](C)CC)C(=O)O [3A-EP-PEG4-PA],"antiviral effect of P2 variants as EV71 inhibitor, in words",EV71,improved antiviral effect
CC(=O)N[C@H](CCCNC(=N)N)C(=O)N[C@H](CS)C(=O)N[C@H](Cc1ccc(O)cc1)C(=O)N[C@H](CCC(N)=O)C(=O)N[C@H](CCCNC(=N)N)C(=O)N[C@@H](C(=O)N[C@H](CCC(=O)O)C(=O)N[C@H](CCC(=O)O)C(=O)N1CCC[C@@H]1C(=O)N1CCC[C@@H]1C(=O)N[C@H](CCCNC(=N)N)C(=O)N[C@H](CCCNC(=N)N)C(=O)N[C@H](CCCNC(=N)N)C(=O)N[C@H](CCC(N)=O)C(=O)N[C@H](CCCNC(=N)N)C(=O)N[C@H](CCCNC(=N)N)C(=O)N[C@H](CCCCN)C(=O)N[C@H](CCCCN)C(=O)N[C@H](CCCNC(=N)N)C(=O)NCC(=O)N[C@H](Cc1ccc(O)cc1)C(N)=O)C(C)C [ER-DRI] (Ac-[dR][dC][dY][dQ][dR][dV][dE][dE][dP][dP][dR][dR][dR][dQ][dR][dR][dK][dK][dR]G[dY]-NH2),"HE staining of brain, liver, lung and kidney, in words",[2]; four weeks after administration,"no significant pathological change in the brain, liver, lung and kidney"
same,"body weight vs PBS group, in words","[2]; 10-day-old suckling mice, weight recorded 15 days",no significant difference in body weight
